Laboratory results taken from patent US20220257595A1, “MACITENTAN FOR USE IN TREATING PORTOPULMONARY HYPERTENSION” (ACTELION PHARMACEUTICALS LTD, priority 2019, published 2022).

Test system: patients with PoPH
Experiment: PORTICO: 6-minute walk test (6MWD)
Format: in vivo, human
Procedure: (iv) 6-minute walk test, including Borg dyspnea index: The 6MWT was performed at Screening, Baseline (Visit 2/Randomization), and then every Visit until EOT-DB or EOT-OL, whichever came last. It is a non-encouraged test that measures the distance walked by the patient in six minutes. It is important that for each individual patient the 6MWT was conducted under the same conditions throughout the study (e.g., same location, same tester, same time of day, with or without nasal oxygen therapy and where applicable with same flow rate as Baseline). The Borg dyspnea index was evaluated after each 6MWT. It rates dyspnea on a scale from 0 to 10.
Handling of missing data: For change from baseline to Weeks 4, 8 and 12 in 6MWD and WHO FC, the last available value (including baseline) was carried forward unless the patient died before, or on Day 42, 70, 98 (the upper limit treatment days of Weeks 4, 8 and 12 windows, respectively), in which case the following rules considering worst case were used to replace all the missing values from the week after death up to Week 12: • For 6MWD, worst fixed value was set to 0, • For WHO FC, worst fixed value was set to class IV, • For change from baseline to Week 12 in NT-proBNP, the same imputation rule as for PVR was applied as described herein.
Statistical analysis: The change from baseline to Week 12 in mRAP, mPAP, cardiac index, TPR and SVO2 were analyzed on the FAS (with imputation) using an ANCOVA with factors for treatment group, background PAH-specific therapy at baseline (Yes/No as per IXRS, randomization stratification factor), region (Europe/North America/Latin America as per IXRS, randomization stratification factor) and a covariate for baseline corresponding variable. Other RHC variables are listed only. WHO FC is summarized on the FAS (with imputation) by time point and treatment group using frequency tables. Changes from baseline in WHO FC were dichotomized as worsening (i.e., change >0) versus no change or improvement (i.e., change ≤0). Worsening was analyzed using a logistic regression model (exact) with covariates for treatment group, background PAH-specific therapy at baseline (Yes/No as per IXRS, randomization stratification factor) and region (Europe/North America/Latin America as per IXRS, randomization stratification factor). 6MWD is summarized on the FAS (with imputation) by time point and treatment group using descriptive statistics. Change from baseline to each time point is summarized similarly. Change from baseline in 6MWD (up to Week 12) was analyzed using a mixed-effect model repeated measure (MMRM) with factors for treatment group, time point, treatment by time interaction, background PAH-specific therapy at baseline (Yes/No as per IXRS, randomization stratification factor) and region (Europe/North America/Latin America as per IXRS, randomization stratification factor), and covariates for baseline 6MWD and WHO FC. An unstructured covariance matrix was used to account for the correlation between repeated measurements from the same patient. NT-proBNP is summarized on the FAS (with imputation) by time point and treatment group using descriptive statistics as well as geometric means and CVs. The ratio of Week 12 to baseline NT-proBNP is summarized similarly. The ratio versus baseline in NT-proBNP was log-transformed and analyzed using an ANCOVA with covariates for treatment group, background PAH-specific therapy at baseline (Yes/No as per IXRS, randomization stratification factor), region (Europe/North America/Latin America as per IXRS, randomization stratification factor) and baseline log NT-proBNP.
Supportive/sensitivity analyses: The main MMRM model analysis for 6MWD was also performed without stratification factors. […]

[1] = 10 mg o.d., FAS with imputation, N=43
[2] = MTS without imputation, macitentan in both DB and OL periods
[3] = MTS without imputation, macitentan only in OL period (DB placebo patients)

In the case of `CCCNS(=O)(=O)Nc1ncnc(OCCOc2ncc(Br)cn2)c1-c1ccc(Br)cc1` [macitentan, N-[5-(4-Bromophenyl)-6-[2-[(5-bromo-2-pyrimidinyl)oxy]ethoxy]-4-pyrimidinyl]-N′-propylsulfamide], the “6MWD at Week 4, mean ± SD” value [1] is reported as 392.5 ± 93.74 m, the “6MWD at Week 8, mean ± SD” value [1] is reported as 390.3 ± 99.35 m and the “6MWD at Week 12, mean ± SD” value [1] is reported as 392.2 ± 98.46 m. The “Change from baseline to Week 4 in 6MWD, mean ± SD” value [1] was 6.7 ± 44.55 m, the “Change from baseline to Week 8 in 6MWD, mean ± SD” value [1] was 4.5 ± 67.40 m and the “Change from baseline to Week 12 in 6MWD, mean ± SD” value [1] was 6.4 ± 65.74 m. The “LS mean difference (macitentan-placebo), change in 6MWD to Week 12, ANCOVA sensitivity analysis” value (FAS) was 10.05 m, the “Difference in LS means macitentan-placebo, change in 6MWD at Week 4” value (MMRM, FAS) was 23.02 m and the “Difference in LS means macitentan-placebo, change in 6MWD at Week 8” value (MMRM, FAS) was 14.47 m. For the same compound, the “Difference in LS means macitentan-placebo, change in 6MWD at Week 12” value (MMRM, FAS) was 9.73 m, the “Difference in LS means macitentan-placebo, change in 6MWD, overall” value (MMRM, FAS, Weeks 4-12 overall) was “Overall: 15.74 m” and the “Mean (±SD) change from baseline in 6MWD at Week 4” value [2] was 7.0±45.62 m. For the same compound, the “Mean (±SD) change from baseline in 6MWD at Week 24” value [2] was 22.0±42.55 m, the “Mean (±SD) change from macitentan baseline in 6MWD at Week 4” value [3] was 11.5±31.67 m and the “Mean (±SD) change from macitentan baseline in 6MWD at Week 12” value [3] was 13.9±39.27 m. The “Mean (±SD) observed difference at Week 12 (macitentan-placebo) in 6MWD” value (no imputation) was 18.4 m and the “Increase in walk distance from baseline to Week 24” value (patients originally randomised to macitentan, followed into open-label period) was 20 m.
